# Like-named read-outs stand apart in the source and are kept apart here.
# Molecular target: T1, OGDH (Rattus norvegicus, UniProt Q5XI78)
# T1 sequence (Q5XI78 41-1023): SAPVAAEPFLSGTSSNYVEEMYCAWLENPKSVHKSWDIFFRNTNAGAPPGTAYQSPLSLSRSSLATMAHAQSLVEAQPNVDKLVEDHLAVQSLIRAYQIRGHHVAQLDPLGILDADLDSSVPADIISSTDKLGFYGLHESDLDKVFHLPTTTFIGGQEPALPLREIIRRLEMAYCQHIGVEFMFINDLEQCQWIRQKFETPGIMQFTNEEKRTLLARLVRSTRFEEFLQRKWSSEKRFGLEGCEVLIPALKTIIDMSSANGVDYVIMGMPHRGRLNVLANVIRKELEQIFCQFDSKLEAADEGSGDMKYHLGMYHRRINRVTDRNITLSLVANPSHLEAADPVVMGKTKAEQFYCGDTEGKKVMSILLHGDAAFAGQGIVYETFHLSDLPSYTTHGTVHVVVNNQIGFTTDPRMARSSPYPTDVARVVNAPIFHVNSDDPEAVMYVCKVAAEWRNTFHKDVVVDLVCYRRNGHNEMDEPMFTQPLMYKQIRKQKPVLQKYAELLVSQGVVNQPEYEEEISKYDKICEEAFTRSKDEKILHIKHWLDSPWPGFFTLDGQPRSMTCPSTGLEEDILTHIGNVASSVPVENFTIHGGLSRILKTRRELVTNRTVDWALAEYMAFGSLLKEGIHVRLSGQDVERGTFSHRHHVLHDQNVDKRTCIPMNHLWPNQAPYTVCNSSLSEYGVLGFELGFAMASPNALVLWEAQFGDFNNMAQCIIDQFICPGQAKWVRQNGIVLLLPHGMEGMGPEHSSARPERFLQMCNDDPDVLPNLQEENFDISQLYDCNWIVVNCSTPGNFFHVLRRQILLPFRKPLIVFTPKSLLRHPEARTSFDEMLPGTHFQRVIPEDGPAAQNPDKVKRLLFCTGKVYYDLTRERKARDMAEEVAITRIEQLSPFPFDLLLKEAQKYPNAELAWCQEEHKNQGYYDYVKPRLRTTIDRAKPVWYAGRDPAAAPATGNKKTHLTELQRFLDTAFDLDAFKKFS
# T1 sequence (Q01205 69-454 partner): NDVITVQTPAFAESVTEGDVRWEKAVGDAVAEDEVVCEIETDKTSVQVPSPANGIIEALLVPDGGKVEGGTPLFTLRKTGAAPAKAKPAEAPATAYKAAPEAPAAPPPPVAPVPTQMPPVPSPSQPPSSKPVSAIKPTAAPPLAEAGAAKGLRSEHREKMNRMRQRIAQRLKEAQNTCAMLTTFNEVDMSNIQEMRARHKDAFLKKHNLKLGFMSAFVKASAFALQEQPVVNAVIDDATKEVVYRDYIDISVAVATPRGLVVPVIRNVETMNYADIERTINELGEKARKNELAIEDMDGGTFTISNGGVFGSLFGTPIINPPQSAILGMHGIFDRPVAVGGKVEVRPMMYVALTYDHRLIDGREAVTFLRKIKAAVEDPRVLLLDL
# T1 sequence (Q6P6R2 36-509 partner): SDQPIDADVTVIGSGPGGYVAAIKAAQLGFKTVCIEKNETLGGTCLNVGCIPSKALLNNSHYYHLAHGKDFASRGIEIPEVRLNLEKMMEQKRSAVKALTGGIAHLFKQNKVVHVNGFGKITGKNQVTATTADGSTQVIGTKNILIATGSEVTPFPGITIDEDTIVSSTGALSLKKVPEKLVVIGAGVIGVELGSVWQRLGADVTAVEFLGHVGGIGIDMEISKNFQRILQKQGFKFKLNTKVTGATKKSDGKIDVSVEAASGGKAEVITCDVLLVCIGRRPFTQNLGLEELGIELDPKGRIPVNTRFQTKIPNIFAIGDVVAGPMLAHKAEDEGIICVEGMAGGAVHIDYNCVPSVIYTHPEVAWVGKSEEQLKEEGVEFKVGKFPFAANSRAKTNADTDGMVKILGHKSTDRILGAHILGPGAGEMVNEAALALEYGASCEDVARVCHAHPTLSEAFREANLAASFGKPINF
# Assay: OADH reaction (OA saturation) catalyzed by the enzyme preparation from rat heart
# Assay type: biochemical
# Parameters: the tissue fractions with the complexes enriched to a degree allowing for a robust detection of the enzymatic activities, have been used; from tissue; host or cells: rat heart
# Conditions: for Ki / Amax: OADH reaction, heart
# Protocol: Enzymes catalyzing OGDH and OADH reactions were enriched from rat hearts and livers using polyethylene glycol precipitation, as previously described (Artiukhov et al., [2020]).
# The enzyme activities were assayed in the medium (pH 7.0) containing 50 mM MOPS, 1 mM ThDP, 1 mM MgCl2, 1 mM CaCl2, 1 mM dithiothreitol 0.15 mM Coenzyme A, 0.25 mM NAD^+ and various concentrations of 2-oxo substrates (0–10 mM OG or OA) and their phosphonate analogs (0–5,000 μM SP, GP, or AP). Reactions were started by addition of the enzyme preparations to the assay media. The amount of enzyme preparations (0.074 mg protein for the preparation from liver and 0.023 mg protein for the preparation from heart) were chosen to induce the lowest reliably measured reaction rate (ΔA340 = 0.001/min) at 0.01 mM OA without the phosphonates.
# Reaction rates were calculated from linear parts of the product accumulation curves (up to 10 min, dependent on the reaction rate), excluding the initial region, where mixing the reagents and solubilization of the preparation affected the optical density.
# Non-linear regression was used to approximate the experimental dependences of the reaction rates on the OG or OA concentration according to the Michaelis-Menten equation ( a=Amax*[S]/Km+[S] ) or its sum ( a=Amax*[S]/Km+[S]+Amax,2*[S]/Km,2+[S] ). The former equation describes one type of the active sites. […] The assumption was based on the presence of the two enzymes, OGDH and OADH, in the employed preparations.
# The kinetic data were also analyzed by linear regression, using the known methods of the linearization of the Michaelis-Menten equation in the Lineweaver-Burk ( 1/a=1/Amax(1+Km/[S]) ) and Eadie-Hofstee ( a=Amax−Kmv/[S] ) coordinates. Due to the several orders of magnitude difference in the values of Km,1 and Km,2, the linear regression required separate analysis of the dependencies in the intervals of the low and high concentrations of 2-oxoadipate. The Km and Amax values obtained in independent experiments using the non-linear and linear regression analyses of the experimental data, were averaged and presented as Mean ± Standard Error of Mean.
# To determine the inhibition constants (Ki), the effective values of Kmeff and Amaxeff , calculated from the hyperbolic or linear approximations as described above, were plotted against the concentration of the inhibitors ([I]). The linear regression of the equation Kmeff/Amaxeff=Km/Amax(1+[I]/Ki) , (Cornish-Bowden, [1979]) was applied to find the Intercept (Km/Amax) and Slope (Km/(Amax*Ki)) of a dependence. The values of Ki were determined as the ratio of the corresponding Intercepts to the Slopes. In the two-site model, the Ki(1) and Ki(2) were calculated separately from the linear approximations of Km,1eff/Amax,1eff vs. [I] and Km,2eff/Amax,2eff vs. [I] dependences, respectively. The standard errors of Ki were determined from means and standard errors of the Intercepts and the Slopes, using the previously described formula for standard deviation of a fraction (Bunik et al., [1999]). The Ki values obtained from the non-linear and linear regression analyses of the experimental data were averaged and presented as Mean ± Standard Error of Mean.
# [1] = 0–10 mM OA, Michaelis-Menten, read-out: Ki, MM
# [2] = Eadie-Hofstee, read-out: Ki, EH
# [3] = Lineweaver-Burk, read-out: Ki, LB
# [4] = average of MM, LB, EH, read-out: Ki, Average
"Amax, OA saturation (heart preparation)",SMILES,Ki [1],Ki [2],Ki [3],Ki [4],Amax ([I] 0.5 µM),Amax ([I] 2 µM),Amax ([I] 10 µM),Amax ([I] 50 µM),Amax ([I] 200 µM),Amax ([I] 1000 µM)
,"O=C(O)CCCCC(=O)P(=O)(O)O [AP, adipoyl phosphonate]",49 ± 8 µM,40 ± 7 µM,58 ± 8 µM,49 ± 5 µM,0.101 ± 0.002 µmol/min per mg of protein,0.096 ± 0.002 µmol/min per mg of protein,0.098 ± 0.002 µmol/min per mg of protein,0.109 ± 0.002 µmol/min per mg of protein,0.116 ± 0.002 µmol/min per mg of protein,
,"O=C(O)CCCC(=O)P(=O)(O)O [GP, glutaryl phosphonate]",3.8 ± 0.1 µM,3.4 ± 0.5 µM,1.1 ± 0.2 µM,2.8 ± 0.8 µM,,0.105 ± 0.003 µmol/min per mg of protein,0.131 ± 0.002 µmol/min per mg of protein,0.139 ± 0.010 µmol/min per mg of protein,0.103 ± 0.018 µmol/min per mg of protein,
0.102 ± 0.008 μmol/min per mg of protein,"O=C(O)CCCC(=O)C(=O)O [OA, 2-oxoadipate]",,,,,,,,,,
,"O=C(O)CCC(=O)P(=O)(O)O [SP, succinyl phosphonate]",10.2 ± 0.2 µM,6.3 ± 0.1 µM,4.7 ± 0.3 µM,7.1 ± 1.6 µM,,,0.109 ± 0.001 µmol/min per mg of protein,0.109 ± 0.006 µmol/min per mg of protein,0.106 ± 0.004 µmol/min per mg of protein,0.075 ± 0.123 µmol/min per mg of protein

# Source: paper PMC7835950 (Frontiers in Chemistry, 2021)
